# Data as given in patent EP1114151B1, “G PROTEIN-COUPLED RECEPTOR ANTAGONISTS” (Hopital Sainte-Justine, priority 1998, dated 2011).
# Test system: FP receptor
# Experiment: porcine eyecup model of ex vivo vasomotricity assay, PGF2α-induced constriction of retinal microvessels
# From the text: In order to see if the peptides could inhibit FP function using an ex vivo model, we chose porcine eyecup model, an ex vivo assay of vascular constriction in porcine retinas which we previously described and validated (Li et al., 1996 J. Pharmacol. Expt. Therapeut. 278: 370-377; Li et al., 1997 Am. J. Physiol. 273: R1283-90; Abran et al., 1997 Am. J. Physiol. 272: R995-1001). Since FP receptor densities in newborn vasculature are minimal due to down regulation by high levels of circulating prostaglandins in the perinatal period, the newborn pigs were treated with a prostaglandin synthetase blocker, ibuprofen (30 mg/Kg of bodyweight/ 8 h for 24 h) to increase the density of the receptors as well as their vasomotor effects. By inhibiting circulating prostaglandins; we were able to show potent inhibition of FP receptor-mediated second messenger synthesis as well as FP-mediated vascular constriction in this eyecup model.
# The preparations were allowed to stabilize for 30 min.
# Vascular diameter was recorded before and 10 min following the topical application of the agent.
# Small letters indicate L-amino acids and capital letters indicate D- amino acids. I = isoleucine; L= leucine; G =glycine; H=histidine, R=Arginine; D=Aspartic acid; Y=Tyrosine; […]; A-Alanine; W= Tryptophan; E-Glutamic acid; F= Phenyl alanine; Q=Glutamine; N=Aspargine; P=Proline; S=Serine; X=Cyclohexyl alanine.
sequence,measurement,setting,value
"ILGHKDYK [PCP-13.13, R to K variant of PCP-13]",%Vasomotor response (of constriction),"100 µM peptide added 30 min before 10^-7 M PGF2α, relative to maximal constriction in the absence of peptide",36.9%
same,% inhibition of maximal max. response,"100 µM peptide, 10^-7 M PGF2α, calculated as 100 - per cent vasomotor response",63.1%
same,change of inhibitory activity relative to the parent peptide (in words),"peptides at 100 µM, compared with PCP-13 (PCP-13 and PCP-11 with PCP-8, PCP-12 with PCP-10)",affected the activity of PCP-13 moderately
